Where two headings read alike, the source gives them in different places.
Key:
[1] = Biodistribution in normal mice; type: in vivo, ddY mice; conditions: for time of peak brain uptake: postinjection
Procedure: While under anesthesia with 2% isoflurane, ddY mice were injected directly into a tail vein with 100 µL of 10% EtOH containing ^125I-labeled pyridyl benzofuran derivatives (37 kBq). The mice (male, n = 5 for each time point) were sacrificed at 2, 10, 30, and 60 min postinjection. The organs of interest were removed and weighed, and radioactivity was measured with an automatic gamma counter (COBRAII; Packard). Percentage dose per organ was calculated by comparing the tissue counts to suitably diluted aliquots of the injected material. The %dose/g of samples was calculated by comparing the sample counts with the count of the diluted initial dose.

[2] = target: T1, Aβ(1–42) aggregates (Homo sapiens, UniProt P05067); assay: In vitro binding assay with Aβ(1–42) aggregates, competition with [125I]IMPY; conditions: mean ± SEM of three independent determinations; Cheng-Prusoff
T1 construct: Aβ(1–42) was purchased from the Peptide Institute (Osaka, Japan); purchased Peptide Institute (Osaka, Japan)
Procedure: Aggregation was carried out by gently dissolving the peptide (0.25 mg/mL) in a buffer solution (pH 7.4) containing 10 mM sodium phosphate and 1 mM EDTA. […] The mixture was then filtered through Whatman GF/B filters using a Brandel M-24 cell harvester, and the radioactivity of the filters containing the bound ^125I ligand was measured in a γ counter. Values for the half-maximal inhibitory concentration (IC50) were determined from displacement curves of three independent experiments using GraphPad Prism 5.0, and those for the inhibition constant (Ki) were calculated using the Cheng-Prusoff equation [26]: […]

[3] = In vivo stability in normal mice (intact form in plasma by RP-HPLC); set-up: species or system ddY mice; conditions: 30 min postinjection, i.v.
Procedure: [^125I]8 (0.11 MBq, 100 µL) was injected into the tail vein of ddY mice. The mice were sacrificed at 2, 10, and 30 min after the injection (male, n = 3 for each time point). The blood samples were centrifuged at 3,500 rpm for 10 min to separate plasma. Plasma samples were mixed with equal volumes of acetonitrile followed by centrifugation at 4,500 rpm for 10 min to remove the denatured proteins. The supernatant was filtrated using 0.45 µm filter (Millipore; Billerica, MA, USA). Then, the filtrate was analyzed by RP-HPLC.

[4] = target: T2, Aβ plaques (Homo sapiens, UniProt P05067); assay: Small-animal SPECT/CT in Tg2576 and wild-type mice; type: in vivo, Tg2576 transgenic mice; conditions: average ± SD
Procedure: Dynamic SPECT scans were performed on a dedicated small-animal SPECT scanner (FX3300, Gamma Medica-Ideas). Tg2576 transgenic mice (28 months, female, n = 3) and wild-type mice (28 months, female, n = 3) were used as an Alzheimer’s model and an age-matched control, respectively. Briefly, the animals were initially anesthetized with 2% isoflurane. When fully anesthetized, an animal was placed on the scanner bed, with a nose cone used to maintain anesthesia with 2% isoflurane throughout the experiment. [^123I]8 (20.5–26.5 MBq) in 10% aqueous EtOH solution containing 0.1% Tween80 was injected into a tail vein. Dynamic data were acquired over a period of 60 min after the injection, followed by the acquisition of CT data over a period of 5 min. The SPECT data were reconstructed using a 3-dimensional ordered subsets expectation maximization (3D OSEM) algorithm (5 iteration, 8 subsets). The SPECT scan time was sorted by a 30-s time frame in each 1-min interval (total, 60 frames for a total scan time of 60 min). […] For statistical analyses, regions of interest (ROIs) were manually placed over the frontal cortex (FR) and cerebellum (CE) on the summed SPECT images of [^123I]8 in Tg2576 (n = 3) and wild-type (n = 3) mice. Identification of anatomical structures was guided by the stereotaxic mouse brain atlas. […]

[5] = target: T2, Aβ plaques; assay: Ex vivo autoradiography of transgenic mouse brain; conditions: brains of Tg2576 mice after SPECT/CT; not in the wild-type control
Excerpt: The animals were killed by decapitation after the SPECT analysis. Brains were immediately removed and frozen in a dry ice/hexane bath. Sections of 20 µm were cut and exposed to a BAS imaging plate (Fuji Film, Tokyo, Japan) overnight. Ex vivo film autoradiograms were thus obtained. After autoradiographic examination, the same sections were stained by thioflavin-S to confirm the presence of Aβ plaques. For staining with thioflavin-S, sections were immersed in a 0.125% thioflavin-S solution containing 50% EtOH for 5 min and washed in 50% EtOH. After drying, the sections were examined using a microscope (Eclipse 80i; Nikon) equipped with a B-2A filter set (excitation, 450–490 nm; diachronic mirror, 505 nm; long-pass filter, 520 nm).

[6] = In vitro stability in mouse plasma; type: in vitro ADME; conditions: incubation 1 h at 37°C, RP-HPLC
Procedure: [^125I]8 (11 kBq, […]) was added to the mouse plasma ([…]), and the plasma samples were incubated at 37°C for 1 h. After incubation, plasma samples were mixed with equal volumes of acetonitrile followed by centrifugation at 4,500 rpm for 10 min to remove the denatured proteins. The supernatant was filtrated using a 0.45 µm filter (Millipore; Billerica, MA, USA). Then, the filtrate was analyzed by RP-HPLC.

[7] = set-up: method as in PMID 17210465; conditions: ref [31]; cited from earlier work
[8] = tested on: Aβ plaques; assay: In vitro autoradiography using human AD brain sections; type: binding; conditions: postmortem human AD brain sections, 1 h at room temperature
Procedure: Postmortem brain tissues from an anonymous autopsy-confirmed case of AD (person) were obtained from the Graduate School of Medicine, Kyoto University. Six-micrometer-thick serial sections of paraffin-embedded blocks were used for in vitro autoradiography. The sections were incubated with ^125I-labeled tracers (444 kBq/50 µL) for 1 h at room temperature, then dipped in saturated Li2CO3 in 40% EtOH (two 2-min washes), washed with 40% EtOH (one 2-min wash), and rinsed with water for 30 s. After drying, the ^125I-labeled sections were exposed to a BAS imaging plate (Fuji Film) overnight. Autoradiographic images were obtained using a BAS5000 scanner system (Fuji Film). After autoradiographic examination, the same sections were immunostained using an amyloid β-protein immunohistochemical staining kit (Wako Pure Chemical Industries, Ltd.).

T1 sequence (P05067 672-713 limits assumed): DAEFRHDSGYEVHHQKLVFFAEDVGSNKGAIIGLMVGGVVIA
T2 sequence (P05067 672-711 limits assumed): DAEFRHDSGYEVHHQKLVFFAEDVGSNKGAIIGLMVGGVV

## CN(C)c1ccc(-c2cc3cc(I)ccc3o2)cn1 [Compound 9, 5-(5-Iodobenzofuran-2-yl)-N,N-dimethylpyridin-2-amine]
[1]; i.v.
  time of peak brain uptake: 10 min
[2]
  Ki: 2.36 ± 0.53 nM

## CNc1ccc(-c2cc3cc(I)ccc3o2)cn1 [Compound 8, 5-(5-Iodobenzofuran-2-yl)-N-methylpyridin-2-amine]
[3]
  percent of the intact form in plasma after injection: 20.7%
[4]; Tg2576 mice (n = 3)
  mean FR/CE ratio (frontal cortex to cerebellum), SPECT: 1.34±0.07
[4]; wild-type mice (n = 3)
  mean FR/CE ratio (frontal cortex to cerebellum), SPECT: 1.01±0.03
[1]; i.v., 60 min
  brain radioactivity at 60 min postinjection: 1.30 %ID/g
[1]; i.v.
  time of peak brain uptake: 2 min
[5]
  ex vivo autoradiography, labeling of Aβ plaques: extensive labeling of Aβ plaques
[2]
  Ki: 2.94 ± 0.22 nM
[6]
  radioactivity existing as intact form in mouse plasma: 77.4%

## CNc1ccc(/C=C/c2ccc(OCCOCCOCC[18F])nc2)cc1 [[^18F]AV-45, (E)-4-(2-(6-(2-(2-(2-[^18F]fluoroethoxy)ethoxy)ethoxy)pyridin-3-yl)vinyl)-N-methylaniline]
[7]
  brain2min/brain60 min ratio: 3.8

## Nc1ccc(-c2cc3cc(I)ccc3o2)cn1 [Compound 7, 5-(5-Iodobenzofuran-2-yl)pyridin-2-amine]
[1]; i.v.
  time of peak brain uptake: 10 min
[1]; washout from the brain
  brain2min/brain60 min ratio: 1.30
[2]
  Ki: 10.3 ± 1.48 nM
[8]
  in vitro autoradiography of AD brain sections: nonspecific binding in white matter

Source: PMC3772825, “Development of Novel ^123I-Labeled Pyridyl Benzofuran Derivatives for SPECT Imaging of β-Amyloid Plaques in Alzheimer’s Disease” (PLoS ONE, 2013)
